Test results taken from ChEMBL document CHEMBL1159006, “Anti-HIV and cytotoxic alkaloids from Buchenavia capitata” (J Nat Prod, 1992).
The source made the active and inactive calls. The rule behind the calls is not given here.

Experiments:
[1] = test system: Human immunodeficiency virus 1; assay: Antiviral activity against HIV1 in human C8166 cells; type: functional, organism-based
[2] = test system: Human immunodeficiency virus 1; assay: Antiviral activity against HIV1 3B in human H9 cells; type: functional, organism-based
[3] = Cytotoxicity against human melanoma cells after 48 hrs by SRB assay; type: functional; settings: Melanoma cell, read-out: LC50 (the source's name)
Escherichia coli [4] = assay: DNA damaging activity against Escherichia coli BR513 containing lysogenic lambda-lacZ fusion phage at 1 mg/ml by biochemical prophage induction assay; type: functional, organism-based
[5] = test system: Human immunodeficiency virus 2; assay: Antiviral activity against HIV2 NIH-DZ assessed as cytoprotection; type: functional, organism-based
[6] = target: Protease (Human immunodeficiency virus 1) (UniProt Q9YQ12); assay: Inhibition of HIV1 protease expressed in Escherichia coli by immunoblotting
Chain of Protease (Human immunodeficiency virus 1) (Q9YQ12 as listed by the source): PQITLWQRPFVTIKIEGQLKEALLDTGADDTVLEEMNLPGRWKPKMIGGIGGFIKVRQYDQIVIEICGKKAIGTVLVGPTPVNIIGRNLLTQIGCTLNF

[7] = target: Human immunodeficiency virus type 1 reverse transcriptase (Human immunodeficiency virus 1) (UniProt Q72547); assay: Inhibition of HIV1 reverse transcriptase
Escherichia coli [8] = assay: DNA damaging activity against Escherichia coli K12 at 1 mg/ml by SOS chromotest agar spot test; type: functional, organism-based
CEM-SS = assay: Cytotoxicity against human CEM-SS cells; type: cell-based
[9] = test system: Human immunodeficiency virus 1; assay: Antiviral activity against HIV1 RF in human MT2 cells; type: functional, organism-based
[10] = test system: Human immunodeficiency virus 2; assay: Inhibition of HIV2 reverse transcriptase
[11] = test system: Human immunodeficiency virus 1; assay: Antiviral activity against HIV1 in human CEM-SS cells after 6 days; type: functional, organism-based

Structure (SMILES)	Activity [1]	Activity [2]	CC50 [3] [µM]	Activity (Escherichia coli [4])	Activity [5]	Activity [6]	Activity [7]	Activity (Escherichia coli [8])	IC50 (CEM-SS) [µM]	Activity [9]	Activity [10]	Activity [11] [%]	EC50 ([11]; Human immunodeficiency virus 1, CEM-SS, 144 h) [µM]
CN1CCCCC1c1c(O)cc(O)c2c(=O)cc(-c3ccccc3)oc12 (stereo not given)	inactive	inactive	0.1	inactive	inactive	inactive	inactive	inactive	0.66	inactive	inactive	–	–
COc1cc(O)c(C2CCCCN2C)c2oc(-c3ccccc3)cc(=O)c12 (stereo not given) [BUCHENAVIANINE]	–	–	–	–	–	–	–	–	5.7	–	–	<50	–
O=c1cc(-c2ccccc2)oc2c(C3CCCCN3)c(O)cc(O)c12 (stereo not given)	–	–	–	–	–	–	–	–	142	–	–	–	142
